Assay results published in patent EP0200818A1, “Derivatives of the pluramycin group having anti-tumor activity, process for their preparation and their use as medicaments” (MICROBIAL CHEMISTRY RESEARCH FOUNDATION, priority 1984, dated 1986).

What was measured:
[1] = Acute toxicity (LD50), single intraperitoneal injection; type: in vivo; details: single intraperitoneal injection in mice
Protocol: The LD50 of 5',6'-dehydrokidamycin for a single intraperitoneal injection in mice was 100 mg/kg.

L 1210 leukemia cells = test: Anti-tumor activity: life prolongation of mice transplanted intraperitoneally with L 1210 leukemia cells; type: in vivo, CDF1 mice; details: observed for 30 days, survival of physiological saline control mice = 100
Protocol: A suspension of 1 x 10^5 L 1210 leukemia cells was transplated intraperitoneally in each of the CDF1 mice tested. Thereafter, 5',6'-dehydrokidamycin was injected intraperitoneally for 10 days in predetermined amounts, 10, 5, 2.5, 1.25, 0.625 and 0.3125 mg/kg.

[2] = test system: cultured leukemia cell L 1210; test: Cytotoxicity: growth inhibition of cultured leukemia cells; type: cell-based; details: growth of cultured leukemia cell L 1210
Protocol: The growth of cultured leukemia cell L 1210 was inhibited by 0.07 µg/ml (IC50) of 5',6'~dehydrokidamycin.

Substance 5',6'-dehydrokidamycin has an LD50 [1] of 100 mg/kg, a Percent life prolongation (L 1210 leukemia cells; 0.3125 mg/kg/day intraperitoneally for 10 days) of 147% and a Percent life prolongation (L 1210 leukemia cells; 0.625 mg/kg/day intraperitoneally for 10 days) of 133%. The Percent life prolongation (L 1210 leukemia cells; 1.25 mg/kg/day intraperitoneally for 10 days) was 133%, the Percent life prolongation (L 1210 leukemia cells; 2.5 mg/kg/day intraperitoneally for 10 days) was 133% and the Percent life prolongation (L 1210 leukemia cells; 5 mg/kg/day intraperitoneally for 10 days) was 173%. It also gave a Percent life prolongation (L 1210 leukemia cells; 10 mg/kg/day intraperitoneally for 10 days) of 153% and an IC50 [2] of 0.07 µg/mL.
